# Measured values as given in patent US6497904B2, “Treatment of oncologic tumors with an injectable formulation of a golgi apparatus disturbing agent” (priority 1998, dated 2002).
# How the values were obtained:
# [1] = system: Balb/C mice; test: Survival of Balb/C mice following treatment (deaths due to toxicity); type: in vivo; details: Example 3
# Source text: Balb/C mice are divided into groups and given treatments according to Table 3. Mice are observed daily for 25 days for deaths due to toxicity.
# Balb/C mice are divided into groups and given treatments according to Table 7.
# [2] = system: Erlich tumors; test: In vivo efficacy (delay in tumor growth, T/C) in Balb/C mice carrying Erlich tumors
# Description: For each of the following examples, the pharmaceutical formulations were prepared just prior to use. Various amounts of brefeldin A (mg of drug/kg animal's body weight) were weighed out and varying amounts of solvent was used to mix the drug. The mixtures were either vortexed (mechanical mixing) or sonicated until drug was either completely soluble or only a very small amount appeared to settle in the bottom the test tube. Chitin was then added and the mixture was sonicated.
# Six days following inoculation, the mice normally grew a tumor on each flank, ranging in size from 100 to 120 mm^3. The mice (average weight=25 g) were randomized and separated into groups. Each tumor was then measured and the tumor volume calculated and recorded. In experimental groups, one tumor on each mouse was treated with the appropriate agent (drug versus drug in formulation) with an injection volume of 50 ul using a 22G½ needle. The control group was left untreated.
# Antitumor activity was determined by inhibition of tumor growth and survival rate. Each tumor was measured two to three times per week. In nude mice, tumors were measured for 10 days or until mice survived. In Balb/C tumors were measured for up to 20 days following treatment. The volume of the tumor was calculated and recorded. Tumor volume data is analyzed by using simple regression model. […]
# Balb/C mice are divided into groups and given treatments according to Table 4. Mice are observed daily to evaluate lethal toxicity and tumors are measured on alternate days for 20 days. […]
compound,measurement,setting,value
C[C@H]1CCC/C=C/[C@@H]2C[C@H](O)C[C@H]2[C@H](O)/C=C/C(=O)O1 [brefeldin A],toxicity to mice,"[1]; high doses (80 mg/kg and 40 mg/kg) with DMA, groups 4 and 8",most toxic
same,toxicity to mice,[1]; when chitin is added to the formulation (with DMA),less toxicity
same,T/C ratio of delay in tumor growth,"[2]; Example 2, groups 5, 6, and 7, given with the solvent (DMA 5-20 μl), no chitin",1.25-1.75
same,T/C ratio of delay in tumor growth,"[2]; Example 2, groups 8, 9, and 10, delivered with DMA (5-20 μl) and chitin",2.00-2.75
same,T/C ratio of delay in tumor growth,"[2]; Example 4, groups 4, 5, and 6, BFA 2 mg delivered with DMA and chitin",2.50-2.85
same,T/C ratio of delay in tumor growth,"[2]; Example 4, groups 7, 8, and 9, decreased dose of brefeldin A (0.5 mg) with DMA and chitin",2.30-2.55
